Reference: patent publication US8415469B2, “Compounds and methods for kinase modulation, and indications therefor” (Plexxikon Inc., priority 2005, dated 2013)

Assays:
Assay type in all cases: biochemical
MAP4K4 = MAP4K4 (Homo sapiens, UniProt O95819); test: AlphaScreen kinase assay, MAP4K4; settings: read-out: IC50, activity toward kinase MAP4K4
Hck = Hck (Homo sapiens, UniProt P08631); test: AlphaScreen kinase assay, Hck; settings: read-out: IC50, activity toward kinase Hck
From the text: (§1) AlphaScreen assay was used to screen additional kinases. The assay is similarly dependent on the phosphorylation of a peptide substrate. In this assay, an antibody that recognizes phosphorylated substrate is bound to an acceptor bead. The peptide substrate is attached to biotin, which binds to a donor head that contains streptavidin. Thus phosphorylated substrate is bound by antibody and streptavidin, bringing the donor and acceptor heads into close proximity when kinase is not inhibited. The donor produces singlet oxygen which results in emission from the acceptor when they are in close proximity. Conversely, when kinase is inhibited, the donor and acceptor beads are not associated and the emission from the acceptor is reduced.
(§2) AlphaScreen assays were done using compounds dissolved in DMSO to a concentration of 20 mM. The compounds were diluted accordingly to the desired final concentrations in each sample well, using 1:3 serial dilution for a total of 8 concentration points.

Frk = Frk (Homo sapiens, UniProt P42685); test: AlphaScreen kinase assay, Frk; settings: read-out: IC50, activity toward kinase Frk
Frk, sequence (P42685 whole entry): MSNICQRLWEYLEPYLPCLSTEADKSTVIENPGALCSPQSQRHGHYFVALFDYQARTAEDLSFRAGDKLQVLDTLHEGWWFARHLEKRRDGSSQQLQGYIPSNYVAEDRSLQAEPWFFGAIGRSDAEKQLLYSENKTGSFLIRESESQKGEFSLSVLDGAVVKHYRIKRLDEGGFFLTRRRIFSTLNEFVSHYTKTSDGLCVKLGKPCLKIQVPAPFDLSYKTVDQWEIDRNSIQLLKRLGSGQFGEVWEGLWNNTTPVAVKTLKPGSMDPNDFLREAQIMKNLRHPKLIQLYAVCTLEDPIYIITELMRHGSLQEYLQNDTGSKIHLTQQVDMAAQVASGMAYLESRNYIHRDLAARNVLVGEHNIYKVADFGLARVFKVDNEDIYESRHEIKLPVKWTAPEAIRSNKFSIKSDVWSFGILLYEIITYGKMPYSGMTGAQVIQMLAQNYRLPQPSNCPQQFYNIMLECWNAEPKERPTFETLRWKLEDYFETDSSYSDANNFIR
Outline: (§3)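 Bead-proximity format: phosphopeptide links anti-phospho antibody acceptor beads to streptavidin donor beads via biotin tag. Compounds were serially diluted 1:3 (8 points) from 20 mM stocks in DMSO.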

Brk = Brk (Homo sapiens, UniProt Q13882); test: AlphaScreen kinase assay, Brk; settings: read-out: IC50, activity toward kinase Brk
Brk, sequence (Q13882 whole entry): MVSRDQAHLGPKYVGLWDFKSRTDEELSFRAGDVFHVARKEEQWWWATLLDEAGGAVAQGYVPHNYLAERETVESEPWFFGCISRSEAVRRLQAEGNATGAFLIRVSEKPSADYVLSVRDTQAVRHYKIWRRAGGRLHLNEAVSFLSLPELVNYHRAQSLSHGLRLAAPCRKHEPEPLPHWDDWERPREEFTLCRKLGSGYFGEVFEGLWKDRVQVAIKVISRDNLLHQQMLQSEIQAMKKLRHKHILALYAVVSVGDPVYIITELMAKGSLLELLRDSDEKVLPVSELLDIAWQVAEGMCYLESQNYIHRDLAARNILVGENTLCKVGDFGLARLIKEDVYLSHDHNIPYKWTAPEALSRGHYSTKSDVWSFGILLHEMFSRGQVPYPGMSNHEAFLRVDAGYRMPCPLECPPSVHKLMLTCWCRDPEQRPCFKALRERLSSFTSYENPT
Outline: as §3

MAPKAPK2 = target: T1, MAPKAPK2 (Homo sapiens, UniProt P49137); test: Z'-Lyte FRET kinase assay (Invitrogen), MAPKAPK2; settings: read-out: IC50, activity toward kinase MAPKAPK2
T1 construct: purchased Invitrogen (assay run by Invitrogen)
T1 sequence (P49137 whole entry): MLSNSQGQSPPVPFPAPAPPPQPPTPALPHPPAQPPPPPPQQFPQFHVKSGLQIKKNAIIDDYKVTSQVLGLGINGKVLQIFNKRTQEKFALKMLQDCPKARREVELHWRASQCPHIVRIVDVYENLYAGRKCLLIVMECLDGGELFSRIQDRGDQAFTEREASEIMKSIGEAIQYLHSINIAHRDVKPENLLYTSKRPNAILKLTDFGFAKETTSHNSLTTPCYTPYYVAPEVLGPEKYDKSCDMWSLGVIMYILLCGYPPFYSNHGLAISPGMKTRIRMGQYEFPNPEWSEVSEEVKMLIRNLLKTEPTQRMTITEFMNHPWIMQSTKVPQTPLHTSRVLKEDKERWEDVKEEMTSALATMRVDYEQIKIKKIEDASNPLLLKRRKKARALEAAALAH
Outline: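 Read-out is the coumarin-to-fluorescein emission ratio, which rises when unphosphorylated peptide is cleaved by the development protease. Reactions contain serially diluted compound, 2 μM peptide and 10 μM ATP and run for 1 h at room temperature before 1 h development.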

Erk2 = target: T2, Erk2 (Homo sapiens, UniProt P28482); test: AlphaScreen kinase assay, Erk2; settings: read-out: IC50, activity toward kinase Erk2
T2 construct: P4227.pET15S ERK2/MEK1DD; His6 with thrombin site (N); made in house
T2 sequence (P28482 with tags, fused parts or gaps): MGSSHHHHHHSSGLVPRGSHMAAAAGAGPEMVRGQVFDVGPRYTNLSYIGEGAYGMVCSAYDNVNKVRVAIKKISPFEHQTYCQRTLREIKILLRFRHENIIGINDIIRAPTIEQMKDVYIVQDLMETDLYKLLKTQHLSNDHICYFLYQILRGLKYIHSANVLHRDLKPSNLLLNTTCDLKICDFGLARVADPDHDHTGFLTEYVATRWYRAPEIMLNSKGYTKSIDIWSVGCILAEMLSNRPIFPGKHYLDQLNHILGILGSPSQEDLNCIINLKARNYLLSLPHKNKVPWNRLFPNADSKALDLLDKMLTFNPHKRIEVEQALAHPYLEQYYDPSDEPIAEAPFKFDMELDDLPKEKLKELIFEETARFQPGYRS
From the text: as §1, §2

IKK beta = target: T3, IKK beta (Homo sapiens, UniProt O14920); test: AlphaScreen kinase assay, IKK beta; settings: read-out: IC50, activity toward kinase IKK beta
T3 sequence (O14920 1-756): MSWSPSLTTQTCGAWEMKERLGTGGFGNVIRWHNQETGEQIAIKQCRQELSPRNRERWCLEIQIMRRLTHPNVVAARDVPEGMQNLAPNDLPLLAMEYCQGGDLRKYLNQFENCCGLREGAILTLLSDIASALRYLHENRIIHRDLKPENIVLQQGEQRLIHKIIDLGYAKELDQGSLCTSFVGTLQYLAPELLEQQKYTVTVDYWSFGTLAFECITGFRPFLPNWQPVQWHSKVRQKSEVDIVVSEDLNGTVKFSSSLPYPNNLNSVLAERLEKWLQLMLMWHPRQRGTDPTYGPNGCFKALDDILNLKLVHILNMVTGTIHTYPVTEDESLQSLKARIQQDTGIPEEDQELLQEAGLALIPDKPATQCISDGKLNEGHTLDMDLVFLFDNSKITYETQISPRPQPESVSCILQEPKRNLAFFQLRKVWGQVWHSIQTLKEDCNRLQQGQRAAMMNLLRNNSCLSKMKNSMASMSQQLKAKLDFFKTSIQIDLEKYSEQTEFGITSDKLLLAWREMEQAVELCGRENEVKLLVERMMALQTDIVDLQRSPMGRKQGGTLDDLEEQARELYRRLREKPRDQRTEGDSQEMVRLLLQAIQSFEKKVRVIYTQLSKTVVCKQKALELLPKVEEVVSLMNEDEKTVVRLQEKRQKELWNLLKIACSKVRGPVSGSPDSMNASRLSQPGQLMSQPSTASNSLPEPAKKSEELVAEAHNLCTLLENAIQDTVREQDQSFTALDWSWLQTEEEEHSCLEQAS

Tie2 = Tie2 (Homo sapiens, UniProt Q02763); test: AlphaScreen kinase assay, Tie2; settings: read-out: IC50, activity toward kinase Tie2
Tie2, sequence (Q02763 23-1124): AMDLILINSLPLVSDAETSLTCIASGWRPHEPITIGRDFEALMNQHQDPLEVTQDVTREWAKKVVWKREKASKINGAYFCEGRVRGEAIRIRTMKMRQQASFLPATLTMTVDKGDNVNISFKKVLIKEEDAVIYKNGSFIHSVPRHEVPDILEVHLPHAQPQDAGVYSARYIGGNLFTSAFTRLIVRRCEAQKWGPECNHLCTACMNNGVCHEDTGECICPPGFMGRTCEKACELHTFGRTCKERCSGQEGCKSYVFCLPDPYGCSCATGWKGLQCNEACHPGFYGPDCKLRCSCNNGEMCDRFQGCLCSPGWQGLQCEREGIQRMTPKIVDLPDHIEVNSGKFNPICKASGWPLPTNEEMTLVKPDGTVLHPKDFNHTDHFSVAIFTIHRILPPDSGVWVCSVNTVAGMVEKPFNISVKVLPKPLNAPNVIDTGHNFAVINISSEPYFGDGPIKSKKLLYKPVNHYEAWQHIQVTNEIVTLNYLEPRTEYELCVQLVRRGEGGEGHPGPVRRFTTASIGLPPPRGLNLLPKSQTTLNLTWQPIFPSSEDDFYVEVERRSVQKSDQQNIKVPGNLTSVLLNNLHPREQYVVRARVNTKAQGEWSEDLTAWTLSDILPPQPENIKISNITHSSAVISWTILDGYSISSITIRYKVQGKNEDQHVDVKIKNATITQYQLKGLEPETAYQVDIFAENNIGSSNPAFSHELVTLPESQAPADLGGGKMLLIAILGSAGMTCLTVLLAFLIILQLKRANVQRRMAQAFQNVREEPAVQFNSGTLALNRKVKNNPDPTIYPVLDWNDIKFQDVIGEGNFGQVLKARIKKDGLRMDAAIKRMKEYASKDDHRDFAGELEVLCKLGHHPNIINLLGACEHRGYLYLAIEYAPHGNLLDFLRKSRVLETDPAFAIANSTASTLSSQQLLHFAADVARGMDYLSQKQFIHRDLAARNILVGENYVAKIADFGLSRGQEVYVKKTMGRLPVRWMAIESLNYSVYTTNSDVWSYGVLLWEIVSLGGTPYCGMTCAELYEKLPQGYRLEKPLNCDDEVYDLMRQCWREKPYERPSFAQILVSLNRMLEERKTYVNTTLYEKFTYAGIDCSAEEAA
From the text: as §1, §2

ALK = ALK (Homo sapiens, UniProt Q9UM73); test: AlphaScreen kinase assay, ALK; settings: read-out: IC50, activity toward kinase ALK
ALK, sequence (Q9UM73 19-1620): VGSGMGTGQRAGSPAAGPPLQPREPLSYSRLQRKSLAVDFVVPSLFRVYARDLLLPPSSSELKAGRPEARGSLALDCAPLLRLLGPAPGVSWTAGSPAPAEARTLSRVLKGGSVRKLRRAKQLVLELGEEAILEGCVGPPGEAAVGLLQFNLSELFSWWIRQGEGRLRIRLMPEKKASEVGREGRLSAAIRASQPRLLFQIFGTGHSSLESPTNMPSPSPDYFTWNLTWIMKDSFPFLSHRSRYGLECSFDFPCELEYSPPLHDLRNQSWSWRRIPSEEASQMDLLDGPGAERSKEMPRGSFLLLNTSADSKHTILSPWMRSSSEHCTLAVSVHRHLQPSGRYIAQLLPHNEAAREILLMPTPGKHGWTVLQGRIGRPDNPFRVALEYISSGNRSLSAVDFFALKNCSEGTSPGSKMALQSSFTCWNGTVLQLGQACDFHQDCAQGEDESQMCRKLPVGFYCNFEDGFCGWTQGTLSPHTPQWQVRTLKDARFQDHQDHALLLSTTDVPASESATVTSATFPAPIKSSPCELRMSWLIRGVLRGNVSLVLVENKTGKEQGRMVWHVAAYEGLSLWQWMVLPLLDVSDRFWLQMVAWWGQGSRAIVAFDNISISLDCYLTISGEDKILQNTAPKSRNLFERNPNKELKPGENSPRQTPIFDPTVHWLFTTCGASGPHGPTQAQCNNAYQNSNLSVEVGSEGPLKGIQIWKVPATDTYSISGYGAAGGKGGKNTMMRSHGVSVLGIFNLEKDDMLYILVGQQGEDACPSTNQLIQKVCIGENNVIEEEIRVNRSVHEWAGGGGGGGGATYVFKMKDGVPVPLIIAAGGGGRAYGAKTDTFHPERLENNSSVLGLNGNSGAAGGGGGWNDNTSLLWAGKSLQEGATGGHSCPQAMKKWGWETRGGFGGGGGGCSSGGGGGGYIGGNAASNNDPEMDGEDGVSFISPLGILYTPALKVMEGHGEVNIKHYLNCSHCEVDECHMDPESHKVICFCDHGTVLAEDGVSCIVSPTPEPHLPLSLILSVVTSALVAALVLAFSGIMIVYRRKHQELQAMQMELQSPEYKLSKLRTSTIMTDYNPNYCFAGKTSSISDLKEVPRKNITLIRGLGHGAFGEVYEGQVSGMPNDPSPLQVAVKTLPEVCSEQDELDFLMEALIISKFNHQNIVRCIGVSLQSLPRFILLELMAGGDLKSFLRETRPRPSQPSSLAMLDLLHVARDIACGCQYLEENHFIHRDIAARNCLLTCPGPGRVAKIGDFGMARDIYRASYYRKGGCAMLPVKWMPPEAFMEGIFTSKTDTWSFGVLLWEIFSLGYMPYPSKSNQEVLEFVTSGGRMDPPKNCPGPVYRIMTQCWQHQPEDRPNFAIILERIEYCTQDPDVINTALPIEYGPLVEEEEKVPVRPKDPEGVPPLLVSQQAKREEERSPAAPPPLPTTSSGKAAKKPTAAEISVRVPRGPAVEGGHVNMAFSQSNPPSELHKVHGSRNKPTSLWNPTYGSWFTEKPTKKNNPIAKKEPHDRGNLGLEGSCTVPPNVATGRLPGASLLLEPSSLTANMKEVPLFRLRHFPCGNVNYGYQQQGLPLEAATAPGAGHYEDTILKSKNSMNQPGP
From the text: as §1, §2

Csk = Csk (Homo sapiens, UniProt P41240); test: AlphaScreen kinase assay, Csk; settings: read-out: IC50, activity toward kinase Csk
Csk, sequence (P41240 whole entry): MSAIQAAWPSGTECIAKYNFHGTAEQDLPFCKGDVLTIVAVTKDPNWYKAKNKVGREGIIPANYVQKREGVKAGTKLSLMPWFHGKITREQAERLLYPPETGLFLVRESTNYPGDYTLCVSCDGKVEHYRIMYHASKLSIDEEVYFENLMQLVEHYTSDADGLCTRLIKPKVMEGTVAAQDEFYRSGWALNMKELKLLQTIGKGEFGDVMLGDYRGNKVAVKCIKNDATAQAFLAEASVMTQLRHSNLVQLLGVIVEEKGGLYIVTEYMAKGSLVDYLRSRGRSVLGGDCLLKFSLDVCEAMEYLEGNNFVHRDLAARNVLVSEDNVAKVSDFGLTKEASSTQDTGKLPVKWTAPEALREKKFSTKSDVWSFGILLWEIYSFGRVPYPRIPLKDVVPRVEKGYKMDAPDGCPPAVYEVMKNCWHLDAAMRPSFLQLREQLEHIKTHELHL
Outline: as §3

Measured: IC50

Cc1c(NS(C)(=O)=O)cccc1C(=O)c1c[nH]c2ncc(-c3ccccc3)cc12 [Compound P-0082, N-[2-Methyl-3-(5-phenyl-1H-pyrrolo[2,3-b]pyridine-3-carbonyl)-phenyl]-methanesulfonamide]
≤ 10 µM: MAP4K4

CCCCNC(=O)Nc1ccc(F)c(C(=O)c2c[nH]c3ncc(-c4cccnc4)cc23)c1F [Compound P-1318, 1-Butyl-3-[2,4-difluoro-3-(5-pyridin-3-yl-1H-pyrrolo[2,3-b]pyridine-3-carbonyl)-phenyl]-urea]
≤ 10 µM: Hck | Frk | Brk | MAP4K4

Cc1ccc(S(=O)(=O)NCc2c[nH]c3ncccc23)cc1 [Compound P-0058]
≤ 10 µM: MAPKAPK2 | Erk2

NC(=O)c1ccc(-c2ccnc3[nH]cc(C(=O)c4ccccc4F)c23)cc1 [Compound P-0014]
≤ 10 µM: IKK beta

COc1cc(OC)cc(C(=O)c2c[nH]c3ncc(-c4cccc(NS(C)(=O)=O)c4)cc23)c1 [Compound P-1426, N-{3-[3-(3,5-Dimethoxy-benzoyl)-1H-pyrrolo[2,3-b]pyridin-5-yl]-phenyl}-methanesulfonamide]
≤ 10 µM: Hck | Tie2 | ALK | Csk | MAP4K4

Nc1ccnc2[nH]cc(C(=O)c3ccccc3)c12 [Compound P-0029]
≤ 10 µM: IKK beta

CCCS(=O)(=O)Nc1ccc(F)c(C(=O)c2c[nH]c3ncccc23)c1F [Compound P-0007, Propane-1-sulfonic acid [2,4-difluoro-3-(1H-pyrrolo[2,3-b]pyridine-3-carbonyl)-phenyl]-amide]
not listed: Erk2 | Tie2 | ALK
≤ 10 µM: all other assays above

Fc1cc(F)cc(-c2ccnc3[nH]cc(Sc4ccccn4)c23)c1 [Compound P-0106]
≤ 10 µM: MAPKAPK2 | IKK beta

CCCS(=O)(=O)Nc1ccc(F)c(C(=O)c2c[nH]c3ncc(-c4cccnc4)cc23)c1F [Compound P-0088, Propane-1-sulfonic acid [2,4-difluoro-3-(5-pyridin-3-yl-1H-pyrrolo[2,3-b]pyridine-3-carbonyl)-phenyl]-amide]
≤ 10 µM: MAP4K4

Cn1cc(C(F)(F)F)c(-c2ccc(S(=O)(=O)NCc3c[nH]c4ncccc34)s2)n1 [Compound P-0041]
≤ 10 µM: MAPKAPK2 | Erk2

CCCC(=O)Nc1ccc(F)c(Cc2c[nH]c3ncc(-c4cccnc4)cc23)c1F [Compound P-1280]
≤ 10 µM: Tie2 | ALK | MAP4K4

COc1cccc(C(=O)c2c[nH]c3ncc(-c4cccc(NC(C)=O)c4)cc23)c1F [Compound P-1336, N-{3-[3-(2-Fluoro-3-methoxy-benzoyl)-1H-pyrrolo[2,3-b]pyridin-5-yl]-phenyl}-acetamide]
not listed: MAPKAPK2 | IKK beta
≤ 10 µM: all other assays above

CCCS(=O)(=O)Nc1ccc(F)c(C(=O)c2c[nH]c3ncc(OC)cc23)c1F [Compound P-0806, Propane-1-sulfonic acid [2,4-difluoro-3-(5-methoxy-1H-pyrrolo[2,3-b]pyridine-3-carbonyl)-phenyl]-amide]
≤ 10 µM: Hck | Brk | Tie2 | ALK | Csk | MAP4K4

NC(=O)c1ccc(-c2ccnc3[nH]cc(C(=O)c4cc(F)ccc4F)c23)cc1 [Compound P-0013]
≤ 10 µM: IKK beta

OCCOc1ccc(F)c(Cc2c[nH]c3ncc(-c4cccnc4)cc23)c1F [Compound P-1394, 2-[2,4-Difluoro-3-(5-pyridin-3-yl-1H-pyrrolo[2,3-b]pyridin-3-ylmethyl)-phenoxy]-ethanol]
not listed: MAPKAPK2 | Erk2 | IKK beta
≤ 10 µM: all other assays above
